Numbered stars: 1 amine (or outer) side, 2 acyl side, 3 side chain; on linkers, the order of the positions; unused ones are H or OH. Square brackets hold non-standard residues; d marks the D form. Peptide text beside a SMILES is read from it. * marks the point of attachment. Phe(3,4-(OMe)2) = COc1ccc(C[C@H](N)C(=O)O)cc1OC; Phe(3-CONH2) = NC(=O)c1cccc(C[C@H](N)C(=O)O)c1; Abu(4,4,4-F3) = N[C@@H](CC(F)(F)F)C(=O)O; Phe(4-CN) = N#Cc1ccc(C[C@H](N)C(=O)O)cc1; X6 = NC[C@@H](O)[C@@H](N[*:1])C(=O)[*:2]; Phe(3-F) = N[C@@H](Cc1cccc(F)c1)C(=O)O; Phe(3-Me) = Cc1cccc(C[C@H](N)C(=O)O)c1; Dab(3S-OH) = NC[C@H](O)[C@H](N)C(=O)O; Phe(2-F) = N[C@@H](Cc1ccccc1F)C(=O)O; ΔZArg = N=C(N)NCC/C=C(\N)C(=O)O; dOrn = NCCC[C@@H](N)C(=O)O; NH(CH2)4NH2 = NCCCCN*
Assays:
Test in all cases: MIC, broth microdilution (CLSI), reference strain
Details in all cases: CAMHB
[1] = tested on: Staphylococcus aureus ATCC 13709
[2] = tested on: Escherichia coli ATCC 25922
[3] = tested on: Acinetobacter baumannii ATCC 19606
[4] = tested on: Pseudomonas aeruginosa ATCC 27853

| SMILES | Sa: MIC Staphylococcus aureus ATCC 13709 [1] | Ec: MIC Escherichia coli ATCC 25922 [2] | Ab: MIC Acinetobacter baumannii ATCC 19606 [3] | Pa: MIC Pseudomonas aeruginosa ATCC 27853 [4] |
| --- | --- | --- | --- | --- |
| C[C@H](NC(=O)[C@@H](CCCN)NC(=O)CNC(=O)[C@@H](NC(=O)[C@@H](NC(=O)[C@@H](N)CCCCN)[C@@H](O)CN)[C@@H](O)CN)C(=O)N[C@@H](Cc1cnc[nH]1)C(=O)N[C@@H](CCCCN)C(=O)N/C(=C\CCNC(=N)N)C(=O)N[C@@H](CCCCN)C(=O)NCCCCN [22.18] (H-K[Dab(3S-OH)][Dab(3S-OH)]G[dOrn]AHK[ΔZArg]K-{NH(CH2)4NH2}) | ++ (≤8 μg/mL) | + (≤32 μg/mL) | − (>32 μg/mL) | − (>32 μg/mL) |
| N=C(N)NCC/C=C(\NC(=O)[C@H](CCCCN)NC(=O)[C@H](Cc1cnc[nH]1)NC(=O)[C@@H]1CCCN1C(=O)[C@@H](CCCN)NC(=O)CNC(=O)[C@@H](NC(=O)[C@@H](NC(=O)[C@@H](N)CCCCN)[C@@H](O)CN)[C@@H](O)CN)C(=O)O [22.20] (H-K[Dab(3S-OH)][Dab(3S-OH)]G[dOrn]PHK[ΔZArg]-OH) | ++ (≤8 μg/mL) | + (≤32 μg/mL) | − (>32 μg/mL) | ++ (≤8 μg/mL) |
| NCCCCNC(=O)[C@H](CCCCN)NC(=O)[C@@H](CCCCN)NC(=O)[C@H](CCCCN)NC(=O)[C@H](Cc1cnc[nH]1)NC(=O)[C@@H]1CCCN1C(=O)[C@@H](CCCN)NC(=O)CNC(=O)[C@@H](NC(=O)[C@@H](NC(=O)[C@@H](N)CCCCN)[C@@H](O)CN)[C@@H](O)CN [22.21] (H-K[Dab(3S-OH)][Dab(3S-OH)]G[dOrn]PHK[dK]K-{NH(CH2)4NH2}) | ++ (≤8 μg/mL) | − (>32 μg/mL) | − (>32 μg/mL) | − (>32 μg/mL) |
| NCCCCNC(=O)[C@H](CCCCN)NC(=O)[C@@H](CCCN)NC(=O)[C@H](CCCCN)NC(=O)[C@H](Cc1cnc[nH]1)NC(=O)[C@@H]1CCCN1C(=O)[C@@H](CCCN)NC(=O)CNC(=O)[C@@H](NC(=O)[C@@H](NC(=O)[C@@H](N)CCCCN)[C@@H](O)CN)[C@@H](O)CN [22.22] (H-K[Dab(3S-OH)][Dab(3S-OH)]G[dOrn]PHK[dOrn]K-{NH(CH2)4NH2}) | ++ (≤8 μg/mL) | − (>32 μg/mL) | − (>32 μg/mL) | − (>32 μg/mL) |
| CCOC(=O)[C@H](CCCCN)NC(=O)/C(=C/CCNC(=N)N)NC(=O)[C@H](CCCCN)NC(=O)[C@H](Cc1cnc[nH]1)NC(=O)[C@@H]1CCCN1C(=O)[C@@H](CCCN)NC(=O)CNC(=O)[C@@H](NC(=O)[C@@H](NC(=O)[C@@H](N)CCCCN)[C@@H](O)CN)[C@@H](O)CN [22.28] (H-K[Dab(3S-OH)][Dab(3S-OH)]G[dOrn]PHK[ΔZArg]K-OEt) | ++ (≤8 μg/mL) | + (≤32 μg/mL) | − (>32 μg/mL) | − (>32 μg/mL) |
| N=C(N)NCC/C=C(\NC(=O)[C@H](CCCCN)NC(=O)[C@H](Cc1cnc[nH]1)NC(=O)[C@@H]1CCCN1C(=O)[C@@H](CCCN)NC(=O)CNC(=O)[C@@H](NC(=O)[C@@H](NC(=O)[C@@H](N)CCCCN)[C@@H](O)CN)[C@@H](O)CN)C(=O)N[C@@H](CCCCN)C(=O)O [22.29] (H-K[Dab(3S-OH)][Dab(3S-OH)]G[dOrn]PHK[ΔZArg]K-OH) | ++ (≤8 μg/mL) | + (≤32 μg/mL) | − (>32 μg/mL) | − (>32 μg/mL) |
| N=C(N)NCCC[C@@H](NC(=O)[C@H](CCCCN)NC(=O)[C@H](Cc1cnc[nH]1)NC(=O)[C@@H]1CCCN1C(=O)[C@@H](CCCN)NC(=O)CNC(=O)[C@@H](NC(=O)[C@@H](NC(=O)[C@@H](N)CCCCN)[C@@H](O)CN)[C@@H](O)CN)C(N)=O [22.30] (H-K[Dab(3S-OH)][Dab(3S-OH)]G[dOrn]PHK[dR]-NH2) | ++ (≤8 μg/mL) | + (≤32 μg/mL) | − (>32 μg/mL) | − (>32 μg/mL) |
| N=C(N)NCC/C=C(\NC(=O)[C@H](CCCCN)NC(=O)[C@H](Cc1cnc[nH]1)NC(=O)[C@@H]1CCCN1C(=O)[C@@H](CCCN)NC(=O)CNC(=O)[C@@H](NC(=O)[C@@H](NC(=O)[C@@H](N)CCCCN)[C@@H](O)CN)[C@@H](O)CN)C(N)=O [22.31] (H-K[Dab(3S-OH)][Dab(3S-OH)]G[dOrn]PHK[ΔZArg]-NH2) | ++ (≤8 μg/mL) | ++ (≤8 μg/mL) | − (>32 μg/mL) | − (>32 μg/mL) |
| N=C(N)NCC/C=C(\NC(=O)[C@H](CCCCN)NC(=O)[C@H](Cc1cnc[nH]1)NC(=O)[C@@H]1CCCN1C(=O)[C@@H](CCCN)NC(=O)CNC(=O)[C@H](NC(=O)[C@@H](NC(=O)[C@@H](N)CCCCN)[C@@H](O)CN)[C@H](O)CN)C(=O)N[C@@H](CCCCN)C(=O)NCCCCN [22.32] (H-K[Dab(3S-OH)][X6]G[dOrn]PHK[ΔZArg]K-{NH(CH2)4NH2}) | ++ (≤8 μg/mL) | − (>32 μg/mL) | − (>32 μg/mL) | − (>32 μg/mL) |
| N=C(N)NCC/C=C(\NC(=O)[C@H](CCCCN)NC(=O)[C@H](Cc1ccccc1F)NC(=O)[C@@H]1CCCN1C(=O)[C@@H](CCCN)NC(=O)CNC(=O)[C@@H](NC(=O)[C@@H](NC(=O)[C@@H](N)CCCCN)[C@@H](O)CN)[C@@H](O)CN)C(=O)O [22.33] (H-K[Dab(3S-OH)][Dab(3S-OH)]G[dOrn]P[Phe(2-F)]K[ΔZArg]-OH) | ++ (≤8 μg/mL) | ++ (≤8 μg/mL) | − (>32 μg/mL) | − (>32 μg/mL) |
| COc1ccc(C[C@H](NC(=O)[C@@H]2CCCN2C(=O)[C@@H](CCCN)NC(=O)CNC(=O)[C@@H](NC(=O)[C@@H](NC(=O)[C@@H](N)CCCCN)[C@@H](O)CN)[C@@H](O)CN)C(=O)N[C@@H](CCCCN)C(=O)N/C(=C\CCNC(=N)N)C(=O)O)cc1OC [22.34] (H-K[Dab(3S-OH)][Dab(3S-OH)]G[dOrn]P[Phe(3,4-(OMe)2)]K[ΔZArg]-OH) | ++ (≤8 μg/mL) | ++ (≤8 μg/mL) | − (>32 μg/mL) | − (>32 μg/mL) |
| N=C(N)NCC/C=C(\NC(=O)[C@H](CCCCN)NC(=O)[C@H](Cc1cccc(C(N)=O)c1)NC(=O)[C@@H]1CCCN1C(=O)[C@@H](CCCN)NC(=O)CNC(=O)[C@@H](NC(=O)[C@@H](NC(=O)[C@@H](N)CCCCN)[C@@H](O)CN)[C@@H](O)CN)C(=O)O [22.35] (H-K[Dab(3S-OH)][Dab(3S-OH)]G[dOrn]P[Phe(3-CONH2)]K[ΔZArg]-OH) | − (>32 μg/mL) | − (>32 μg/mL) | − (>32 μg/mL) | − (>32 μg/mL) |
| N=C(N)NCC/C=C(\NC(=O)[C@H](CCCCN)NC(=O)[C@H](Cc1cccc(F)c1)NC(=O)[C@@H]1CCCN1C(=O)[C@@H](CCCN)NC(=O)CNC(=O)[C@@H](NC(=O)[C@@H](NC(=O)[C@@H](N)CCCCN)[C@@H](O)CN)[C@@H](O)CN)C(=O)O [22.36] (H-K[Dab(3S-OH)][Dab(3S-OH)]G[dOrn]P[Phe(3-F)]K[ΔZArg]-OH) | ++ (≤8 μg/mL) | ++ (≤8 μg/mL) | − (>32 μg/mL) | − (>32 μg/mL) |
| Cc1cccc(C[C@H](NC(=O)[C@@H]2CCCN2C(=O)[C@@H](CCCN)NC(=O)CNC(=O)[C@@H](NC(=O)[C@@H](NC(=O)[C@@H](N)CCCCN)[C@@H](O)CN)[C@@H](O)CN)C(=O)N[C@@H](CCCCN)C(=O)N/C(=C\CCNC(=N)N)C(=O)O)c1 [22.37] (H-K[Dab(3S-OH)][Dab(3S-OH)]G[dOrn]P[Phe(3-Me)]K[ΔZArg]-OH) | ++ (≤8 μg/mL) | + (≤32 μg/mL) | − (>32 μg/mL) | − (>32 μg/mL) |
| N#Cc1ccc(C[C@H](NC(=O)[C@@H]2CCCN2C(=O)[C@@H](CCCN)NC(=O)CNC(=O)[C@@H](NC(=O)[C@@H](NC(=O)[C@@H](N)CCCCN)[C@@H](O)CN)[C@@H](O)CN)C(=O)N[C@@H](CCCCN)C(=O)N/C(=C\CCNC(=N)N)C(=O)O)cc1 [22.38] (H-K[Dab(3S-OH)][Dab(3S-OH)]G[dOrn]P[Phe(4-CN)]K[ΔZArg]-OH) | ++ (≤8 μg/mL) | ++ (≤8 μg/mL) | − (>32 μg/mL) | − (>32 μg/mL) |
| COc1ccc(C[C@H](NC(=O)[C@@H]2CCCN2C(=O)[C@@H](CCCN)NC(=O)CNC(=O)[C@@H](NC(=O)[C@@H](NC(=O)[C@@H](N)CCCCN)[C@@H](O)CN)[C@@H](O)CN)C(=O)N[C@@H](CCCCN)C(=O)N/C(=C\CCNC(=N)N)C(=O)O)cc1 [22.39] (H-K[Dab(3S-OH)][Dab(3S-OH)]G[dOrn]PY(Me)K[ΔZArg]-OH) | ++ (≤8 μg/mL) | + (≤32 μg/mL) | − (>32 μg/mL) | − (>32 μg/mL) |
| N=C(N)NCC/C=C(\NC(=O)[C@H](CCCCN)NC(=O)[C@H](CC(F)(F)F)NC(=O)[C@@H]1CCCN1C(=O)[C@@H](CCCN)NC(=O)CNC(=O)[C@@H](NC(=O)[C@@H](NC(=O)[C@@H](N)CCCCN)[C@@H](O)CN)[C@@H](O)CN)C(=O)O [22.40] (H-K[Dab(3S-OH)][Dab(3S-OH)]G[dOrn]P[Abu(4,4,4-F3)]K[ΔZArg]-OH) | ++ (≤8 μg/mL) | + (≤32 μg/mL) | − (>32 μg/mL) | − (>32 μg/mL) |

Source: patent US10626144B2, “Peptide derivatives and uses thereof” (Nosopharm, priority 2014, dated 2020)
